Laboratory results: patent US11672800B2, “Combination therapies with EHMT2 inhibitors” (Epizyme, Inc., priority 2017, dated 2023)
pIC50: −log10 of the molar value.

Legend:
Type in all cases: cell-based
WM-266-4 = experiment: In vitro combination study of Compound 205 with a second agent, melanoma cell proliferation (CellTiter Glo, Loewe synergy); settings: combination with Compound 205; for Combinatorial effect (Loewe method) of second agent with Compound 205, WM-266-4: 7 days pre-treatment with Compound 205, then 7 days co-treatment, ATP content, Loewe volume >1 synergy, -1 to 1 additivity; for Combinatorial effect (Loewe method) of second agent with Compound 205, WM-266-4: key: SYN Synergy; ADD Additivity
Experimental: (§1) On day 14 plates were developed for endpoint analysis using CellTiter Glo to measure ATP content, which was used as an indicator of cell viability. DMSO concentration was kept constant throughout the assay at 0.2% v/v.
(§2) All cells were maintained and cultured at 37° C., in a humidified atmosphere and 5% CO2.
(§3) Loewe volumes greater than 1 denoted synergy and volumes below −1 denoted antagonism. A value between −1 and 1 denoted additivity.

MeWo = experiment: as above; settings: combination with Compound 205; for Combinatorial effect (Loewe method) of second agent with Compound 205, MeWo: 7 days pre-treatment with Compound 205, then 7 days co-treatment, ATP content, Loewe volume >1 synergy, -1 to 1 additivity; for Combinatorial effect (Loewe method) of second agent with Compound 205, MeWo: key: SYN Synergy; ADD Additivity
Experimental: as §1, §2, §3

TALL-1 = experiment: In vitro long term proliferation (LTP), T-ALL cell line; settings: Homo sapiens, 336 h, 14 day LTP, absolute IC50, seeding density 150000, read-out: Compound A75 IC50
Experimental: (§4) Exponentially growing T-cell lymphocytic leukemia (T-ALL) cells were plated, in triplicate, in 96-well plates at the appropriate cell density in a final volume of 150 μl. Cells were incubated in the presence of increasing concentrations of Compound A75. Viable cell number was determined at day 0, 4, 7, 11 and 14 days using Calcein staining and using an Accumen instrument to enumerate the number of cells. On days of cell counts, growth media and Compound A75 were replaced and cells split back to initial density. Total cell number is expressed as split-adjusted viable cells per well. For each cell line, absolute IC50 values (concentration of compound at which 50% inhibition occurs) were determined from concentration-dependence curves at 14 days using Graphpad Prism software.

SUP-T1 = experiment: as above; settings: Homo sapiens, 336 h, 14 day LTP, absolute IC50, seeding density 200000, read-out: Compound A75 IC50
Experimental: as §4

CCRF-CEM = experiment: as above; settings: Homo sapiens, 336 h, 14 day LTP, absolute IC50, seeding density 100000, read-out: Compound A75 IC50
Experimental: as §4

MOLT-4 = experiment: as above; settings: Homo sapiens, 336 h, 14 day LTP, absolute IC50, seeding density 100000, read-out: Compound A75 IC50
Experimental: as §4

MOLT-16 = experiment: as above; settings: Homo sapiens, 336 h, 14 day LTP, absolute IC50, seeding density 100000, read-out: Compound A75 IC50
Experimental: as §4

Jurkat = experiment: as above; settings: Homo sapiens, 336 h, 14 day LTP, absolute IC50, seeding density 100000, read-out: Compound A75 IC50
Experimental: as §4

PEER = experiment: as above; settings: Homo sapiens, 336 h, 14 day LTP, absolute IC50, seeding density 250000, read-out: Compound A75 IC50
Experimental: as §4

SMILES | Combinatorial effect (Loewe method) of second agent with Compound 205, WM-266-4 (WM-266-4) | Combinatorial effect (Loewe method) of second agent with Compound 205, MeWo (MeWo) | other results
Nc1cc(C(F)(F)F)c(-c2cc(N3CCOCC3)nc(N3CCOCC3)n2)cn1 [BKM120, 5-(2,6-dimorpholin-4-ylpyrimidin-4-yl)-4-(trifluoromethyl)pyridin-2-amine] | SYN | SYN | 
CC(C)Nc1cc(-c2c[nH]c(C(=O)N[C@H](CO)c3cccc(Cl)c3)c2)c(Cl)cn1 [BVD-523, N-[(1S)-1-(3-chlorophenyl)-2-hydroxyethyl]-4-[5-chloro-2-(propan-2-ylamino)-pyridin-4-yl]-1H-pyrrole-2-carboxamide] | ADD | ADD | 
CNC1=Nc2cc(C#CCN3CCCCC3)c(OC)cc2C12CCC2 [Compound A75] |  |  | pIC50 (TALL-1): 4.82 to 5.30; pIC50 (SUP-T1): 4.82 to 5.30; pIC50 (CCRF-CEM): 5.30 to 6.00; pIC50 (MOLT-4): 6.00 to 7.00; pIC50 (MOLT-16): 6.00 to 7.00; pIC50 (Jurkat): 5.30 to 6.00; pIC50 (PEER): > 7.00
CO[C@H]1C[C@@H]2CC[C@@H](C)[C@@](O)(O2)C(=O)C(=O)N2CCCC[C@H]2C(=O)O[C@H]([C@H](C)C[C@@H]2CC[C@@H](OCCO)[C@H](OC)C2)CC(=O)[C@H](C)/C=C(\C)[C@@H](O)[C@@H](OC)C(=O)[C@H](C)C[C@H](C)/C=C/C=C/C=C/1C [Everolimus, everolimus] | SYN | SYN | Combination effect of Compound 205 and Everolimus (figure legend) (WM-266-4; WM-266-4 melanoma cell line, FIG. 6): synergy; Combination effect of Compound 205 and Everolimus (figure legend) (MeWo; MeWo melanoma cell line, FIG. 6): synergy
CC(C)NC[C@@H](C(=O)N1CCN(c2ncnc3c2[C@H](C)C[C@H]3O)CC1)c1ccc(Cl)cc1 [GDC-0068, (2S)-2-(4-chlorophenyl)-1-[4-[(5R,7R)-7-hydroxy-5-methyl-6,7-dihydro-5H-cyclopenta[d]pyrimidin-4-yl]piperazin-1-yl]-3-(propan-2-ylamino)propan-1-one] | SYN | ADD | 
NC1(c2ccc(-c3nc4ccn5c(=O)[nH]nc5c4cc3-c3ccccc3)cc2)CCC1 [MK-2206] | SYN | SYN | 
CC(=O)c1c(C)c2cnc(Nc3ccc(N4CCNCC4)cn3)nc2n(C2CCCC2)c1=O [Palbociclib, palbociclib] | SYN | SYN | 
CS(=O)(=O)N1CCN(Cc2cc3nc(-c4cccc5[nH]ncc45)nc(N4CCOCC4)c3s2)CC1 [Pictilisib, 4-[2-(1H-indazol-4-yl)-6-[(4-methylsulfonylpiperazin-1-yl)methyl]thieno[3,2-d]pyrimidin-4-yl]morpholine] | SYN | SYN | 
Cn1cnc2c(F)c(Nc3ccc(Br)cc3Cl)c(C(=O)NOCCO)cc21 [Selumetinib, selumetinib] | ADD | ADD | 
CNC(=O)c1cc(Oc2ccc(NC(=O)Nc3ccc(Cl)c(C(F)(F)F)c3)cc2)ccn1 [Sorafenib] | SYN | ADD | 
CC(=O)Nc1cccc(-n2c(=O)n(C3CC3)c(=O)c3c(Nc4ccc(I)cc4F)n(C)c(=O)c(C)c32)c1 [Trametinib] | ADD | ADD | 
